For data set [1], the target named is T1, leucine aminopeptidase from Leishmania donovani (LdLAP) (Leishmania donovani, UniProt A0A3S7WXR2).
T1 sequence (A0A3S7WXR2 1-565): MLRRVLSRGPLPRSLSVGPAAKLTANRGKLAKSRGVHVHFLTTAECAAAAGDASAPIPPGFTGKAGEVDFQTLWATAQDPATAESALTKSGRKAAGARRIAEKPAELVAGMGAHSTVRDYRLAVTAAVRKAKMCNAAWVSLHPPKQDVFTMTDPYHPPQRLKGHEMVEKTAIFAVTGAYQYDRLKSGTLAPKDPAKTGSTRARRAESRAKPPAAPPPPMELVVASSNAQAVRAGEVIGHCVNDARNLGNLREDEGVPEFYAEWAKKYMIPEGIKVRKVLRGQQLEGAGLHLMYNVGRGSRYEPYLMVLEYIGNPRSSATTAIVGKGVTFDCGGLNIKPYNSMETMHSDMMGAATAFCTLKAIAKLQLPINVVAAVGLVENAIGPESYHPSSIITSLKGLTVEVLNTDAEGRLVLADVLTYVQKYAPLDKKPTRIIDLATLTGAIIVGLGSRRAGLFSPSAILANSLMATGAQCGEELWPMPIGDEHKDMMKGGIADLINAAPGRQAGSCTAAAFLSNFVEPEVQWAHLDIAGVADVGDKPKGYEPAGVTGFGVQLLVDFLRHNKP
Put plainly: Leu-AMC fluorogenic aminopeptidase assay with double-reciprocal plots. Format: biochemical.

Substrate in the data set “purified protein”: Cc1cc(=O)oc2cc(NC(=O)[C@@H](N)CC(C)C)ccc12
Put plainly: purified protein. To be noted: Mn(II).

As a reminder, the Ki is the equilibrium dissociation constant of an inhibitor or competing ligand from its target. The term Km denotes the substrate concentration at which the rate is half of its maximum. As a reminder, the kcat/Km is the turnover number divided by the Michaelis constant.

As for `CC(C)C[C@H](NC(=O)[C@@H](O)[C@H](N)Cc1ccccc1)C(=O)O` [bestatin], the inhibition constant Ki in data set [1] came out at 4.38 nM.

For the molecule `CCCCC[C@H](CC(=O)NO)C(=O)N[C@H](C(=O)N1CCC[C@H]1CO)C(C)C` [actinonin], in data set [1], the affinity corresponds to a Ki of 2.7 nM.

B1: leucine aminopeptidase from Leishmania donovani (LdLAP) (Leishmania donovani) (protein)
chain: T1 sequence (A0A3S7WXR2 1-565)
On to B1, for which, in “purified protein”, the Km is 57.29 µM and the kcat/Km was 5820 M⁻¹ s⁻¹.

The values are drawn from article PMC8320071 (ACS Omega, 2021).
